Results from patent publication US20190175601A1, “COMPOSITION FOR INHIBITING OR ALLEVIATING ITCHING INCLUDING RIBOFLAVIN” (INDUSTRY-UNIVERSITY COOPERATION FOUNDATION HANYANG …, priority 2016, published 2019).

Key:
[1] = tested on: histamine-induced itching; assay: Histamine-induced itching animal behavioral test, preparation for transdermal administration; assay type: in vivo, male C57BL/6 mice
Description: An effect of inhibiting or alleviating itching was tested using the preparation for transdermal administration prepared according to Preparation Example 2. For the test, an animal behavioral experiment was carried out in the same manner as in Experimental Example 1.
In particular, 30 minutes before 100 μg/50 μl of histamine was injected, the preparation for transdermal administration was applied on the skin, and then the preparation was removed 5 minutes before histamine was injected.

[2] = tested on: skin-afferent nerve tissue; assay: Histamine-induced peripheral nerve activity in preserved skin-afferent nerve tissue; details: histamine administered to the sole of the foot; FIG. 3
Description: Histamine-induced itching is known to occur through peripheral nerve excitation. In the present experimental example, it was examined whether histamine-induced peripheral nerve activity was blocked by riboflavin.
After securing preserved skin-afferent nerve tissue, histamine was administered to the sole of the foot to confirm nerve activity, and such histamine-induced nerve activity was blocked by riboflavin (see FIG. 3).

TRPV1 = molecular target: T1, TRPV1 (Homo sapiens, UniProt Q8NER1); assay: Capsaicin current blocking in TRPV1-expressing HEK293 cells; assay type: cell-based; details: TRPV1-expressing HEK 293 cells
T1 construct: expressed in transfected cells; host or cells: HEK 293 cells
From the text: TRPV1 was expressed in HEK 293 cells to carry out a capsaicin current blocking experiment. Under these conditions, riboflavin excluded other channels and a direct effect of riboflavin was examined. The results are illustrated in FIG. 5. FIG. 5 illustrates results of confirming that a capsaicin-induced current was inhibited by riboflavin.

[3] = tested on: histamine-induced itching; assay: Histamine-induced itching animal behavioral test, preparations for oral administration; assay type: in vivo, male C57BL/6 mice; details: FIG. 1
Description: An effect of inhibiting or alleviating itching was tested using the preparations for oral administration prepared according to Preparation Example 1. For the test, an animal behavioral test was performed using the mouse model disclosed in Non-Patent Document 6.
Groups each including 10 male C57BL/6 mice weighing 20 g to 23 g were used in the test. These groups were accommodated under control of a temperature of 23° C. to 25° C. The mice were freely fed food and water. For the itching-induced animal behavioral model test, the mice were orally administered the preparations for oral administration having different concentrations of riboflavin, which were prepared according to Preparation Example 1 (100 mg/kg, 300 mg/kg, or 600 mg/kg). In addition, the mice were treated with the control prepared according to Preparation Example 1.
To induce scratching, histamine, which is known to cause an itching sensation in humans, was used. At this time, histamine was dissolved in sterile physiological saline. 30 minutes after administration of the preparations for oral administration, 50 μl (500 μg/site) of histamine was injected intradermally into the back of the neck of each mouse.
The results were analyzed by calculating the mean and standard deviation, and a statistical difference of mean values was determined using a Student's t-test.

[4] = tested on: spinal cord dorsal root ganglion cells; assay: Histamine-induced current, membrane voltage clamp method; assay type: cell-based; details: primary cultured mouse dorsal root ganglion cells, FIG. 4
Description: In addition, to confirm an effect of riboflavin on blocking histamine-induced peripheral nerve activity, it was examined using a membrane voltage clamp method whether a histamine-induced current was inhibited by riboflavin.
To this end, spinal cord dorsal root ganglion cells of each mouse were isolated and primarily cultured, and then electrophysiological characteristics of the spinal cord dorsal root ganglion cells were recorded using the membrane voltage clamp method.

[5] = tested on: histamine-induced itching; assay: Histamine-induced itching animal behavioral test, local intradermal injection co-administered with histamine; assay type: in vivo, male C57BL/6 mice; details: 1 μM/50 μl intradermal, at the same time as histamine 100 μg/site; FIG. 2
Description: An effect of inhibiting or alleviating itching was tested using the local intradermal injection prepared according to Preparation Example 1.
The test was carried out in the same manner as in Experimental Example 1, except for the following. For the itching-induced animal behavioral model test, 1 μM/50 μl of the local intradermal injection prepared according to Preparation Example 1 was injected intradermally into the back of the neck of each mouse. In addition, upon administration of the preparation, 50 μl (100 μg/site) of histamine was injected intradermally at the same time.

T1 sequence (Q8NER1 whole entry, species assumed): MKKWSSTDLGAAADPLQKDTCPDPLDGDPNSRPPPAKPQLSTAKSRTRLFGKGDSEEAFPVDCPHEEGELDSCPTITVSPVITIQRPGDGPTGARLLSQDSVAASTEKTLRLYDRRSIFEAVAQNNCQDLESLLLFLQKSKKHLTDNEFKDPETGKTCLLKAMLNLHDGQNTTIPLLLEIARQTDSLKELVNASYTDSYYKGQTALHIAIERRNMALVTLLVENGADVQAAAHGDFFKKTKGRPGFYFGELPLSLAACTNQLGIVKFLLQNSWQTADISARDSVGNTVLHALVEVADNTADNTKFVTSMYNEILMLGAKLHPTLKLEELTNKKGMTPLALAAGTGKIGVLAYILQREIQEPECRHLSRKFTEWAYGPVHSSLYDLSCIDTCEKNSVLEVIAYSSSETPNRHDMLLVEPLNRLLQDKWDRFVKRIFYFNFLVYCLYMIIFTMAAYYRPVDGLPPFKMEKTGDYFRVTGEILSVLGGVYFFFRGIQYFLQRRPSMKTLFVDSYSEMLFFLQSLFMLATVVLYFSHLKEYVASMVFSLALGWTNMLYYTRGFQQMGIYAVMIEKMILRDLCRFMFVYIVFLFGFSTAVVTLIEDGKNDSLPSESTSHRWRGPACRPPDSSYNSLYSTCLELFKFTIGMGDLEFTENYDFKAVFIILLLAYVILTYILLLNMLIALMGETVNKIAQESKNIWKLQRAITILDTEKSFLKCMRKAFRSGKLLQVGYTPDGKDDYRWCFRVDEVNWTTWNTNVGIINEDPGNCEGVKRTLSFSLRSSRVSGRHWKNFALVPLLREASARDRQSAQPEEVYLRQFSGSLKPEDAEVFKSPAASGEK

Row | SMILES | histamine-induced itching responses ([1]; 1 mM in Vaseline cream on skin 30 minutes before histamine 100 μg/50 μl, removed 5 minutes before, observed 30 minutes, FIG. 8) | itching behavioral responses (number of times) ([1]; 1 mM transdermal preparation, control 142 times, 30 minutes) [times] | histamine-induced nerve activity [2] | capsaicin-induced current blocking effect at 100 nM (TRPV1; 100 nM) | capsaicin-induced current blocking effect (TRPV1; several concentrations, FIG. 5) | dose dependence of effect on inhibiting histamine-induced itching ([3]; oral 100, 300, 600 mg/kg) | histamine-induced itching responses (number of scratches) ([3]; oral 100, 300 or 600 mg/kg, 30 minutes before histamine 500 μg/site intradermal, observed 30 minutes) | histamine-induced inward current [4] | histamine-induced itching responses (number of scratches) [5]
1 | Cc1cc2nc3c(=O)[nH]c(=O)nc-3n(C[C@H](O)[C@H](O)[C@H](O)CO)c2cc1N(C)C [roseoflavin, 8-demethyl-8-(dimethylamino)-riboflavin] | itching responses were reduced | 60 |  |  |  |  |  |  | 
2 | Cc1cc2nc3c(=O)[nH]c(=O)nc-3n(C[C@H](O)[C@H](O)[C@H](O)CO)c2cc1C [riboflavin] |  |  | blocked | did not effectively block TRPV1 | statistically significant effect of blocking channels in a concentration-dependent manner | dose-dependent pattern | itching responses were reduced | the current is blocked | itching responses were reduced
